Article PMC3060082 (Journal of medicinal chemistry, 2010)

Columns and labels:
[1] = test system: NAADP receptor; assay: Competition ligand binding with [32P]NAADP in sea urchin egg homogenate; conditions: assay not specified
[2] = test system: NAADP receptor; assay: Ca2+ release from Ca2+ loaded sea urchin egg homogenates; type: biochemical, sea urchin (Strongylocentrotus purpuratus); conditions: for potency for Ca2+ release compared to NAADP (fold less potent): text summary of concentration response curves, Figure 2 / Table 3; for concentration as low as which calcium-ion release is induced: Figure 1 traces; for amount of calcium release at saturating concentrations: compared with NAADP; for Fold increase in EC50: relative to NAADP (1)
[3] = test system: NAADP receptor; type: biochemical, sea urchin; conditions: 9 min pretreatment at 1 nM or higher (subthreshold concentration)

loss of potency relative to NAADP [1] | potency for Ca2+ release compared to NAADP (fold less potent) [2] | Fold increase in EC50 [2] | SMILES | further results
 |  | > 50,000 fold | Nc1ncnc2c1ncn2[C@@H]1O[C@H](COP(=O)(O)OP(=O)(O)OC[C@@H]2O[C@H]([n+]3ccc(-c4ccccc4)c(C(=O)[O-])c3)[C@@H](O)[C@H]2O)[C@@H](O)[C@H]1OP(=O)(O)O [compound 19, 4-phenyl-NAADP] | 
 | 10 to 100 fold |  | [N-]=[N+]=Nc1cc(C(=O)[O-])c[n+]([C@H]2O[C@@H](COP(=O)(O)OP(=O)(O)OC[C@H]3O[C@@H](n4cnc5c(N)ncnc54)[C@H](OP(=O)(O)O)[C@@H]3O)[C@H](O)[C@@H]2O)c1 [compound 24, 5-azido-NAADP] | 
 |  | > 50,000 fold | CCCCc1cc[n+]([C@H]2O[C@@H](COP(=O)(O)OP(=O)(O)OC[C@H]3O[C@@H](n4cnc5c(N)ncnc54)[C@H](OP(=O)(O)O)[C@@H]3O)[C@H](O)[C@@H]2O)cc1C(=O)[O-] [compound 18, 4-n-butyl-NAADP] | 
20 fold | 10 to 100 fold |  | CCc1cc(C(=O)[O-])c[n+]([C@H]2O[C@@H](COP(=O)(O)OP(=O)(O)OC[C@H]3O[C@@H](n4cnc5c(N)ncnc54)[C@H](OP(=O)(O)O)[C@@H]3O)[C@H](O)[C@@H]2O)c1 [compound 23, 5-ethyl-NAADP] | 
 |  | > 50,000 fold | Nc1ncnc2c1ncn2[C@@H]1O[C@H](COP(=O)(O)OP(=O)(O)OC[C@@H]2O[C@H]([n+]3cc(C(=O)[O-])cc(C(=O)O)c3)[C@@H](O)[C@H]2O)[C@@H](O)[C@H]1OP(=O)(O)O [compound 22, 5-carboxy-NAADP] | 

SMILES | loss of potency relative to NAADP [1] | potency for Ca2+ release compared to NAADP (fold less potent) [2] | Fold increase in EC50 [2] | further results
Nc1cc[n+]([C@H]2O[C@@H](COP(=O)(O)OP(=O)(O)OC[C@H]3O[C@@H](n4cnc5c(N)ncnc54)[C@H](OP(=O)(O)O)[C@@H]3O)[C@H](O)[C@@H]2O)cc1C(=O)[O-] [compound 16, 4-amino-NAADP] | 100 to 200 fold | two hundred to two thousand fold less potent |  | 
Cc1cc(C(=O)[O-])c[n+]([C@H]2O[C@@H](COP(=O)(O)OP(=O)(O)OC[C@H]3O[C@@H](n4cnc5c(N)ncnc54)[C@H](OP(=O)(O)O)[C@@H]3O)[C@H](O)[C@@H]2O)c1 [compound 21, 5-methyl-NAADP] | only slightly less potent than is NAADP itself | approximately equipotent with NAADP |  | concentration as low as which calcium-ion release is induced [2]: 2 nM; amount of calcium release at saturating concentrations [2]: same amount of calcium release as did the full agonist NAADP; receptor desensitization to 1 μM NAADP after pretreatment [3]: same characteristic receptor desensitization as does NAADP itself
Nc1cc(C(=O)[O-])c[n+]([C@H]2O[C@@H](COP(=O)(O)OP(=O)(O)OC[C@H]3O[C@@H](n4cnc5c(N)ncnc54)[C@H](OP(=O)(O)O)[C@@H]3O)[C@H](O)[C@@H]2O)c1 [compound 20, 5-amino-NAADP] | only slightly less potent than is NAADP itself | approximately equipotent with NAADP |  | concentration as low as which calcium-ion release is induced [2]: 2 nM; amount of calcium release at saturating concentrations [2]: same amount of calcium release as did the full agonist NAADP
Cc1cc[n+]([C@H]2O[C@@H](COP(=O)(O)OP(=O)(O)OC[C@H]3O[C@@H](n4cnc5c(N)ncnc54)[C@H](OP(=O)(O)O)[C@@H]3O)[C@H](O)[C@@H]2O)cc1C(=O)[O-] [compound 17, 4-methyl-NAADP] | 100 to 200 fold | two hundred to two thousand fold less potent |  | potency for Ca2+ release compared with the 5-isomer 21 ([2]; Figure 1): significantly less potent
